For two compounds, Kd and Km results are on record in paper PMC3838859 (Biochemistry, 2013).

For data set [1], the target named is PhnI (C-P lyase nucleosidase) (Escherichia coli, UniProt P16687). The data set is classed as biochemical.
The test system of data set [2] is Nc1ncnc2c1ncn2[C@@H]1O[C@H](COP(=O)(O)OP(=O)(O)OP(=O)(O)O)[C@@H](O)[C@H]1O. The data set is described as follows: steady-state kinetics of the nucleosidase reaction. It counts as biochemical, Escherichia coli. The note with it: Mg2+.

Sequence of PhnI (C-P lyase nucleosidase) (P16687 whole entry): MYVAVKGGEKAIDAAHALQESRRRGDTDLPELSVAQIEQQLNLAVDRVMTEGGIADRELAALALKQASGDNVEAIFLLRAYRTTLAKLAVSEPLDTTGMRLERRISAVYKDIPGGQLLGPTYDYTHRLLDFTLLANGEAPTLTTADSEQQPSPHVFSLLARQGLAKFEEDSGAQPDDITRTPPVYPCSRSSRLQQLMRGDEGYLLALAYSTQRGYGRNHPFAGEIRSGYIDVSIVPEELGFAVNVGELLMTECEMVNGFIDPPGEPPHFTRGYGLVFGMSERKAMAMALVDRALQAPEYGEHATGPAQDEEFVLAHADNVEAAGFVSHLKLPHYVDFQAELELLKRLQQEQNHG

Broadly, the Kd is the concentration at which binding is half-saturated. High values mean weaker binding, low ones tighter binding. `Nc1ncnc2c([C@@H]3N[C@H](COP(=O)(O)OP(=O)(O)OP(=O)(O)O)[C@@H](O)[C@H]3O)c[nH]c12` [ImmA-TP, Immucillin-A triphosphate] returned a Kd in data set [1] of 20 ± 4 nM.
As usually defined, the Km is the substrate concentration at which the rate is half of its maximum. “PhnI (C-P lyase nucleosidase) (Escherichia coli K-12)”: the Michaelis constant (Km) in data set [2] was determined as 95 ± 12 µM.
